This passage reports IC50 results from patent US11104661B1, “Inhibiting human integrin (α-4) (β-7)” (Morphic Therapeutic, Inc., priority 2019, dated 2021).

One assay concerns the target T1, α4β7 (Homo sapiens, UniProt P13612+P26010).
T1 construct: endogenous in cells; host or cells: RPMI 8866 cells
T1 sequence (P13612 34-1032): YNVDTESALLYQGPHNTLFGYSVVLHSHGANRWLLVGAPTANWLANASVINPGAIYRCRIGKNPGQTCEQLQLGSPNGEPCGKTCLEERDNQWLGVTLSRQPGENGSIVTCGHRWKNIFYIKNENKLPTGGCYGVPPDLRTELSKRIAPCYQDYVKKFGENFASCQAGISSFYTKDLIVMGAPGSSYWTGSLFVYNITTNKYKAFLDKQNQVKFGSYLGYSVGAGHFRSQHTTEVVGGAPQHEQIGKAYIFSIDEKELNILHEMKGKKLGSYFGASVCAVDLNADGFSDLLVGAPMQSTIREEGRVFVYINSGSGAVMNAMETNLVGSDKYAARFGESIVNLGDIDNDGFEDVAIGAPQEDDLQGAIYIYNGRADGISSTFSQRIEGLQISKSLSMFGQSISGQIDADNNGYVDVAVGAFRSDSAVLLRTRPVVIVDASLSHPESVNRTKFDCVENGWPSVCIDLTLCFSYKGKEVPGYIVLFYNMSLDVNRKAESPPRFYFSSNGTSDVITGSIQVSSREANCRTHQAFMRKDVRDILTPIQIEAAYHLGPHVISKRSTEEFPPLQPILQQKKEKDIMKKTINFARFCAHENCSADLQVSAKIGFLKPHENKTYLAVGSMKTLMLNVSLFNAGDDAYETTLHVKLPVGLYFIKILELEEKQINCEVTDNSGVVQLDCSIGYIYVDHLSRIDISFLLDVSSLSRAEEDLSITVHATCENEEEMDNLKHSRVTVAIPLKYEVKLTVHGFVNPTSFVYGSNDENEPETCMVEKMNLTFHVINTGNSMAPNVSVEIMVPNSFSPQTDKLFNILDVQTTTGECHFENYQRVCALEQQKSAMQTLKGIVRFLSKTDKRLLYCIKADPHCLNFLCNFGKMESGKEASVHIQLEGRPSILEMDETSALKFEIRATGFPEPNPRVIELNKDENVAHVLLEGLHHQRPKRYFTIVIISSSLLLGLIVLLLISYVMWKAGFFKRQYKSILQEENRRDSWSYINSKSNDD
T1 sequence (P26010 20-798): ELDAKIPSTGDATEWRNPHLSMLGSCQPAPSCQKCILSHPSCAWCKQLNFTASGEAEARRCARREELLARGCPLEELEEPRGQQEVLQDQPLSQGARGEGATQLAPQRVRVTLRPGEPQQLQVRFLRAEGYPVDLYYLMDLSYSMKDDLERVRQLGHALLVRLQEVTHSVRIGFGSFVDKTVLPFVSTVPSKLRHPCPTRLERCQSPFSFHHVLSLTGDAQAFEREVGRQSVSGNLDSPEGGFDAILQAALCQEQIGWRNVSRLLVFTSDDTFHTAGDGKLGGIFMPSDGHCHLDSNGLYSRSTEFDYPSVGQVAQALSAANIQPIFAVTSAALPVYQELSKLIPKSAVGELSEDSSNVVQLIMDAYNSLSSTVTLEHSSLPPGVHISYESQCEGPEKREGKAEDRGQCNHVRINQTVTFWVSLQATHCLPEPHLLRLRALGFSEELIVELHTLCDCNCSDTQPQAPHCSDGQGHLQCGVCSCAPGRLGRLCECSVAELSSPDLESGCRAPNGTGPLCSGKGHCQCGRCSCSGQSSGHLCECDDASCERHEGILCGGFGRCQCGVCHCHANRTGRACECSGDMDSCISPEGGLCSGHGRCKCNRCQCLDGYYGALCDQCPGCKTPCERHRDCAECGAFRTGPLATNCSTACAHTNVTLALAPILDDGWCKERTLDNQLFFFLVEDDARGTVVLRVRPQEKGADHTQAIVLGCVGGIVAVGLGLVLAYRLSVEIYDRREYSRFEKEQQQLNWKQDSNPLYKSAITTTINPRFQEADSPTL
In words: Cell adhesion assay, RPMI8866 cells on MAdCAM coated plates (Example 7). The note with it: RPMI8866 cells adhering to recombinant human MAdCAM; Table 3; read-out: CA Assay (Example 7). The format is cell-based. How it is done: Three in vitro assays were used to examine the α4β7 mechanistic process used by cells: 1) ligand:receptor affinity, 2) the avidity of those interactions on a cell's surface, and 3) how those interactions fare under an imposing force. In Example 5, a Fluorescence Polarization (FP) assay is used to measure compound activity through binding competition with the fluorescein-labeled peptide. In Example 6, the potency of compounds against α4β7 is measured in the cell-based ligand binding assay (LBA), using RPMI 8866 cells incubated with the compound samples in competition with soluble MAdCAM-1 ligand. In Example 7, activity of compounds is evaluated in a cell adhesion assay that mechanistically tests what occurs in vivo when trafficking cells utilize α4β7 to adhere to MAdCAM-1 expressing HEVs of the gut during the extravasation process. In the cell adhesion assay of Example 7, a MAdCAMI1-(Fc) is coated on plastic, and α4β7 expressing cells (RPMI-8866) are allowed to adhere to the coated surface in the presence of the test compounds. Next, the force of washing with buffer is applied to cells thereby testing the strength of that adhesion. Unattached cells are removed and the remaining adherent cells are quantified.
Example 7 describes a cell adhesion assay.
To each well of a 96 well plate, 100 ug of recombinant human MAdCAM in 100 ul PBS is added and incubated overnight at 4° C. After incubation MAdCAM is removed by aspiration and 200 ul of PBS+1% BSA is added to block the plate for 2 hours at 37° C. and 5% CO2. During this incubation dilution curves of compound are made in 100% DMSO in 96 well V bottom plates. 1.75 ul of diluted compounds are then transferred to a new 96 well U bottom plate containing 20 ul of assay media (phosphate free DMEM+25 mM HEPES+1% BSA). To this an additional 155 ul of assay media is added with mixing by pipetting up and down. This mixture is allowed to incubate for 15 minutes at 37° C. and 5% CO2. After incubation 175 ul of assay media containing 2e6/mL RPMI8866 cells is added to compound containing wells without mixing and plate is allowed to incubate for another 15 minutes at 37° C. and 5% CO2. During this incubation MAdCAM coated plates are removed from incubator and washed twice with 200 ul PBS+0.1% BSA. […] This plate is then incubated at 37° C. and 5% CO2 for 1 hour. After incubation plates are washed twice with 200 ul and once with 50 ul of phenol free RPMI+1% BSA. A final 50 ul of phenol free RPMI+1% BSA is added to wells after last wash. Next 50 ul of Promega cell titer glow is added to the wells. Plate is incubated on shaker for 2 minutes at 200 RPM followed by another 8 minutes off shaker before having the luminescence read on a Biotek Citation 5 plate reader. Raw data is converted to % inhibition compared to bottom of curve and analyzed using a 4-parameter non linear curve in Prism to determine IC50 and IC90.
For the compound `Cc1cc(-c2c(C)cccc2C)cc([C@H](CC(=O)O)NC(=O)C(CC(C)C)n2cc(CCN3CC(F)C3)cc(F)c2=O)c1F` (single isomer, unassigned) [AV-P2], the IC50 is below 0.005 µM. For the compound `Cc1cc(C)c(-c2cc(C)c(F)c([C@H](CC(=O)O)NC(=O)C(CC(C)C)n3cc(CCN(C)C)c(C(F)(F)F)cc3=O)c2)c(C)c1` (single isomer, unassigned) [AC-P2], the IC50 was below 0.005 µM.

For the compound `Cc1cc(-c2c(C)ccc(F)c2C)cc([C@H](CC(=O)O)NC(=O)C(CC(C)C)n2cc(CCN3CCC3)c(C(F)(F)F)cc2=O)c1F` (single isomer, unassigned) [AF-P2], the IC50 is below 0.005 µM.

In the case of `Cc1cccc(C)c1-c1cc([C@H](CC(=O)O)NC(=O)C(CC(C)C)n2cc(CCN3CCC3)c(C(F)(F)F)cc2=O)c(F)c(C(F)(F)F)c1` (single isomer, unassigned) [G-P2], the IC50 was below 0.005 µM. With `COc1ccc(C)c(-c2cc(C)c(F)c([C@H](CC(=O)O)NC(=O)C(CC(C)C)n3cc(CCN4CCC4)c(C(F)(F)F)cc3=O)c2)c1C` (single isomer, unassigned) [AG-P2], the IC50 was below 0.005 µM.

The same assay, now with this note: RPMI8866 cells adhering to recombinant human MAdCAM; Table 4 comparative compounds; read-out: CA Assay (Example 7).
For the compound `Cc1cccc(C)c1-c1cccc([C@H](CC(=O)O)NC(=O)[C@H](CC(C)C)n2cc(CN3CC(F)C3)ccc2=O)c1` [drawing 594], the IC50 is above 0.05 µM. With `Cc1cccc(C)c1-c1cccc([C@H](CC(=O)O)NC(=O)[C@H](CC(C)C)n2cc(CN3CC(F)C3)ccc2=O)c1` [drawing 589], the IC50 was above 0.05 µM. On to `Cc1cccc(C)c1-c1cncc([C@H](CC(=O)O)NC(=O)[C@H](CC(C)C)N2CC[C@@H](C(F)(F)F)CC2=O)c1`, for which the IC50 is above 0.05 µM. As to `Cc1ccccc1-c1cc([C@H](CC(=O)O)NC(=O)C(CC(C)C)n2ccccc2=O)ccc1C#N` (stereo partly drawn), the IC50 was above 0.5 µM. The same measure, in the same setting: to `CC(C)C[C@@H](C(=O)N[C@@H](CC(=O)O)c1ccc(-c2ccccc2)cc1)n1cc(CCN2CC(F)C2)cc(F)c1=O` belongs above 0.5 µM; to `Cc1ccccc1-c1cc([C@H](CC(=O)O)NC(=O)C(CC(C)C)n2ccccc2=O)ccn1` (stereo partly drawn), above 0.5 µM; to `Cc1ccccc1-c1cccc([C@H](CC(=O)O)NC(=O)[C@H](CC(C)C)n2ccccc2=O)c1`, above 0.5 µM. For `COc1cccc(F)c1-c1cccc([C@H](CC(=O)O)NC(=O)[C@H](CC(C)C)n2cnc3ccccc3c2=O)c1`, the IC50 is above 0.5 µM. Turning to `CC(C)C[C@@H](C(=O)N[C@@H](CC(=O)O)c1ccc(-c2ccccc2)cc1)n1cc(CCN(C)C)c(C(F)(F)F)cc1=O`, the IC50 was above 0.5 µM. In the case of `Cc1ccn([C@@H](CC(C)C)C(=O)N[C@@H](CC(=O)O)c2cncc(-c3c(C)cccc3C)c2)c(=O)c1`, the IC50 was 0.01 to 0.05 µM.

As to `Cc1cccc(C)c1-c1cccc([C@H](CC(=O)O)NC(=O)[C@H](CC(C)C)n2cc(CN3CC(F)C3)ccc2=O)c1` [drawing 585], the IC50 is above 0.05 µM. As for `Cc1cccc(C)c1-c1cccc([C@H](CC(=O)O)NC(=O)[C@H](CC(C)C)n2cc(CN3CC(F)C3)ccc2=O)c1` [drawing 604], the IC50 is above 0.05 µM. On the same count and under the same terms, the value for `Cc1ccccc1-c1cccc([C@H](CC(=O)O)NC(=O)[C@H](CC(C)C)n2ccncc2=O)c1` was above 0.5 µM; that for `Cc1cccc(C)c1-c1cccc([C@H](CC(=O)O)NC(=O)[C@H](CC(C)C)n2cc(CN3CC(F)C3)ccc2=O)c1` [drawing 577] was above 0.05 µM; that for `Cc1cccc(C)c1-c1cncc([C@H](CC(=O)O)NC(=O)[C@H](CC(C)C)n2ccc(C(F)(F)F)cc2=O)c1` was 0.01 to 0.05 µM. Regarding `Cc1cccc(C)c1-c1cccc([C@H](CC(=O)O)NC(=O)[C@H](CC(C)C)n2cc(CN3CC[C@@H](F)C3)ccc2=O)c1`, the IC50 was 0.01 to 0.05 µM.

With `Cc1cccc(C)c1-c1cncc([C@H](CC(=O)O)NC(=O)C(CC(C)C)n2cc(C(F)(F)F)ccc2=O)c1` (stereo partly drawn), the IC50 is above 0.05 µM. As for `Cc1cccc(C)c1-c1cccc([C@H](CC(=O)O)NC(=O)[C@H](CC(C)C)n2cc(CN3CC(F)C3)ccc2=O)c1` [drawing 599], the IC50 is below 0.005 µM.

As for `Cc1ccccc1-c1cccc([C@H](CC(=O)O)NC(=O)[C@H](CC(C)C)n2cccc(C)c2=O)c1`, the IC50 is above 0.5 µM. The same measure, in the same setting: to `Cc1ccc([C@@H](C(=O)N[C@@H](CC(=O)O)c2cncc(-c3c(C)cccc3C)c2)N2CC(C)CCC2=O)cc1` (stereo partly drawn) belongs above 0.5 µM; to `Cc1cccc(C)c1-c1cccc([C@H](CC(=O)O)NC(=O)[C@H](CC(C)C)n2ccc(CCN(C)C)cc2=O)c1`, 0.01 to 0.05 µM.

As for `Cc1cccc(C)c1-c1cncc([C@H](CC(=O)O)NC(=O)[C@H](CC(C)C)n2ccccc2=O)c1`, the IC50 is above 0.1 µM. For `Cc1cccc(C)c1-c1cccc([C@H](CC(=O)O)NC(=O)[C@H](CC(C)C)n2cccc(CCN(C)C)c2=O)c1`, the IC50 was above 0.1 µM. Take `Cc1cccc(C)c1-c1cc([C@H](CC(=O)O)NC(=O)[C@H](CC(C)C)n2ccccc2=O)ccn1`: the IC50 is above 0.5 µM. As to `Cc1cccc(C)c1-c1cccc([C@H](CC(=O)O)NC(=O)[C@H](CC(C)C)n2cc(CN3CC(F)C3)ccc2=O)c1` [drawing 572], the IC50 is above 0.05 µM.

`Cc1cccc(C)c1-c1cncc([C@H](CC(=O)O)NC(=O)[C@H](CC(C)C)n2cc(CN3CC(F)C3)ccc2=O)c1`: the IC50 was above 0.05 µM.

For `Cc1cccc(C)c1-c1cccc([C@H](CC(=O)O)NC(=O)[C@H](CC(C)C)n2cc(CCN(C)C)ccc2=O)c1`, the IC50 was 0.005 to 0.01 µM.

For the compound `COc1ccc([C@H](CC(=O)O)NC(=O)C(CC(C)C)n2ccccc2=O)cc1-c1ccccc1C` (stereo partly drawn), the IC50 is above 0.5 µM.
